Results as given in patent publication US10030027B2, “Soluble guanylate cyclase stimulators” (MERCK SHARP & DOHME CORP., priority 2015, dated 2018).

Legend:
sGC α1/β1 heterodimer = sGC α1/β1 heterodimer (Homo sapiens (Human), UniProt Q02108+Q02153); assay: Cell-based sGC functional assay (cyclic GMP assay for sGC activator: CASA assay); design: % Activation: concentration or dose not given beside the values; settings: CHO-K1/sGC cells; for Emax: CHO-K1, activity expressed as percentage of compound A (standard), read-out: % Activation; for EC50: inflection point, 4P fit, read-out: IP; for % Activation: activity expressed as percentage of compound A (standard)
Procedure, shortened: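 CHO-K1 cells stably expressing human sGC α1/β1 were pre-incubated 30 min at 25° C with or without 1 μM DETA-NO, then exposed to compound for 1 hr at 37° C with 0.5 mM IBMX and 2.5% DMSO final. Intracellular cGMP was measured by HTRF, expressed as % of reference sGC-HDA maximum; inflection point and maximum fold induction came from 4-parameter fits.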

[1] = biological target: human recombinant sGC enzyme (Homo sapiens (Human), UniProt Q02108+Q02153); assay: Size Exclusion Chromatography (SEC) competition binding assay using [3H] Ex-77B as the radioligand; settings: [3H] Ex-77B radioligand, 24 hours at 37° C.
Procedure, shortened: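 Recombinant human sGC binding measured by competition against tritiated Ex-77B radioligand, with non-specific binding defined by 1 μM unlabeled Ex-77B.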

| Structure (SMILES) | Emax (sGC α1/β1 heterodimer) [%] | EC50 (sGC α1/β1 heterodimer) [nM] | Ki [1] [nM] | % Activation (sGC α1/β1 heterodimer) [%] |
| --- | --- | --- | --- | --- |
| CC(C)(Cc1csc([C@]2(C)C(=O)Nc3nc(-c4nn(Cc5ccccc5F)c5ncc(F)cc45)nc(N)c32)n1)C(=O)O [Example 91B, (S)-3-(2-{4-amino-2-[5-fluoro-1-(2-fluorobenzyl)-1H-pyrazolo[3,4-b]pyridin-3-yl]-5-methyl-6-oxo-6,7-dihydro-5H-pyrrolo[2,3-d]pyrimidin-5-yl}-1,3-thiazol-4-yl)-2,2-dimethylpropanoic acid] | 123 | 132 | 0.18 | – |
| CC(C)(Cc1csc([C@]2(C)C(=O)Nc3nc(-c4nn(CC5CCCC5)c5ncccc45)nc(N)c32)n1)C(=O)O (single isomer, unassigned) [Example 153A] | 119 | 145 | 0.118 | – |
| CC1(c2cn(CC3(C(=O)O)CC3)nn2)C(=O)Nc2nc(-c3nn(CCC(F)(F)C(F)(F)F)c4cc(Cl)ccc34)nc(N)c21 (stereo not shown) [Example 32B, 1-[(4-{4-amino-2-[6-chloro-1-(3,3,4,4,4-pentafluorobutyl)-1H-indazol-3-yl]-5-methyl-6-oxo-6,7-dihydro-5H-pyrrolo[2,3-d]pyrimidin-5-yl}-1H-1,2,3-triazol-1-yl)methyl]cyclopropanecarboxylic acid] | 79 | 445 | 1.7 | – |
| CC1CCC(Cn2nc(-c3nc(N)c4c(n3)NC(=O)C4(C)c3nc(CC(C)(C)C(=O)O)co3)c3cccnc32)CC1 (single isomer, unassigned) [Example 126AA, 3-{2-[4-amino-5-methyl-2-{1-[4-methylcyclohexylmethyl]-1H-pyrazolo[3,4-b]pyridin-3-yl}-6-oxo-6,7-dihydro-5H-pyrrolo[2,3-d]pyrimidin-5-yl]-1,3-oxazol-4-yl}-2,2-dimethylpropanoic acid] | – | 74 | 0.1 | 89.0 |
| CC1(c2ccc(OCC(=O)O)cc2)C(=O)Nc2nc(-c3nn(Cc4ccccc4F)c4cc(Cl)ccc34)nc(N)c21 (stereo not shown) [Example 260A, (4-{4-Amino-2-[6-chloro-1-(2-fluorobenzyl)-1H-indazol-3-yl]-5-methyl-6-oxo-6,7-dihydro-5H-pyrrolo[2,3-d]pyrimidin-5-yl}phenoxy)acetic acid] | 136 | 125 | 0.058 | – |
| CC1(c2cn(C(C)(C)C(=O)O)nn2)C(=O)Nc2nc(-c3nn(Cc4ccccc4F)c4cc(Cl)ccc34)nc(N)c21 (single isomer, unassigned) [Example 141A, 2-(4-{4-Amino-2-[6-chloro-1-(2-fluorobenzyl)-1H-indazol-3-yl]-5-methyl-6-oxo-6,7-dihydro-5H-pyrrolo[2,3-d]pyrimidin-5-yl}-1H-1,2,3-triazol-1-yl)-2-methylpropanoic acid] | – | 193 | 0.665 | – |
| CC(C)(Cc1csc([C@]2(C)C(=O)Nc3nc(-c4nn(CC5CCCCO5)c5cc(F)ccc45)nc(N)c32)n1)C(=O)O (single isomer, unassigned) [Example 133AB] | – | 714 | 0.359 | 111.4 |
| C[C@@]1(c2ccc(CCC(=O)O)cc2)C(=O)Nc2nc(-c3nn(Cc4ccccc4F)c4cc(Cl)c(O)cc34)nc(N)c21 [Example 110B, (S)-3-(4-{4-Amino-2-[6-chloro-1-(2-fluorobenzyl)-5-hydroxy-1H-indazol-3-yl]-5-methyl-6-oxo-6,7-dihydro-5H-pyrrolo[2,3-d]pyrimidin-5-yl}phenyl)propanoic acid] | 78 | 1130 | 0.361 | – |
| C[C@@]1(c2ccc(CCC(=O)O)cc2)C(=O)Nc2nc(-c3nn(Cc4ccccc4F)c4cc(F)ccc34)nc(N)c21 [Example 60B, (S)-3-(4-{4-amino-2-[6-fluoro-1-(2-fluorobenzyl)-1H-indazol-3-yl]-5-methyl-6-oxo-6,7-dihydro-5H-pyrrolo[2,3-d]pyrimidin-5-yl}phenyl)propanoic acid] | 128 | 167 | 0.102 | – |
| CC(C)(Cn1cc(C2(C)C(=O)Nc3nc(-c4nn(Cc5ccccc5F)c5cc(F)ccc45)nc(N)c32)cn1)C(=O)O (stereo not shown) [Example 192A, 3-(4-{4-amino-2-[6-fluoro-1-(2-fluorobenzyl)-1H-indazol-3-yl]-5-methyl-6-oxo-6,7-dihydro-5H-pyrrolo[2,3-d]pyrimidin-5-yl}-1H-pyrazol-1-yl)-2,2-dimethyl-propanoic acid] | 103 | 1040 | 0.116 | – |
| CC1CCC(Cn2nc(-c3nc(N)c4c(n3)NC(=O)[C@@]4(C)c3nc(CC(C)(C)C(=O)O)cs3)c3cccnc32)CC1 (single isomer, unassigned) [Example 125AB] | 138 | 56 | 0.336 | – |
| CC1(c2cccc(-c3nn[nH]n3)n2)C(=O)Nc2nc(-c3nn(Cc4ccccc4F)c4cc(Cl)ccc34)nc(N)c21 (single isomer, unassigned) [Example 253A, 5-[6-(2H-tetrazol-5-yl)pyridin-2-yl]-4-amino-2-[6-chloro-1-(2-fluorobenzyl)-1H-indazol-3-yl]-5-methyl-5,7-dihydro-6H-pyrrolo[2,3-d] pyrimidin-6-one] | – | 3630 | 0.146 | – |
| CC(C)(CCc1csc(C2(C)C(=O)Nc3nc(-c4nn(Cc5ccccc5F)c5ccccc45)nc(N)c32)n1)C(=O)O (stereo not shown) [Example 204A, 4-(2-{4-amino-2-[1-(2-fluorobenzyl)-1H-indazol-3-yl]-5-methyl-6-oxo-6,7-dihydro-5H-pyrrolo[2,3-d]pyrimidin-5-yl}-1,3-thiazol-4-yl)-2,2-dimethyl-butanoic acid] | 97.8 | 47 | 0.269 | – |
| C[C@@]1(c2ccc(CCC(=O)NCc3nn[nH]n3)cc2)C(=O)Nc2nc(-c3nn(Cc4ccccc4F)c4ncccc34)nc(N)c21 [Example 108B, (S)—N-((2H-Tetrazol-5-yl)methyl)-3-(4-{4-amino-2-[1-(2-fluorobenzyl)-1H-pyrazolo[3,4-b]pyridin-3-yl]-5-methyl-6-oxo-6,7-dihydro-5H-pyrrolo[2,3-d]pyrimidin-5-yl}phenyl)propanamide] | 122 | 842 | 0.056 | – |
| CC(C)(Cc1csc([C@]2(C)C(=O)Nc3nc(-c4nn(CC5CCCC5)c5cc(Cl)ccc45)nc(N)c32)n1)C(=O)O [Example 162A, (S)-3-(2-{4-amino-2-[6-chloro-1-(cyclopentyl-methyl)-1H-indazol-3-yl]-5-methyl-6-oxo-6,7-dihydro-5H-pyrrolo[2,3-d]pyrimidin-5-yl}-1,3-thiazol-4-yl)-2,2-dimethyl-propanoic acid] | 76.5 | 69 | 0.15 | – |

Continued by falling EC50 (sGC α1/β1 heterodimer), values first:

| Emax (sGC α1/β1 heterodimer) [%] | EC50 (sGC α1/β1 heterodimer) [nM] | Ki [1] [nM] | % Activation (sGC α1/β1 heterodimer) [%] | Structure (SMILES) |
| --- | --- | --- | --- | --- |
| 86 | 3510 | 0.166 | – | CC1(c2ccc(CC(=O)O)cc2)C(=O)Nc2nc(-c3nn(CCC(F)(F)C(F)(F)F)c4ncccc34)nc(N)c21 (stereo not shown) [Example 118A, 2-(4-{4-amino-5-methyl-6-oxo-2-[1-(3,3,4,4,4-pentafluorobutyl)-1H-pyrazolo[3,4-b]pyridin-3-yl]-6,7-dihydro-5H-pyrrolo[2,3-d]pyrimidin-5-yl}phenyl)acetic acid] |
| 82 | 1090 | 3.65 | – | COCCn1nc(-c2nc(N)c3c(n2)NC(=O)C3(C)c2cccc(CC(C)(C)C(=O)O)c2)c2ccc(Cl)cc21 (stereo not shown) [Example 39B, 3-(3-{4-amino-2-[6-chloro-1-(2-methoxyethyl)-1H-indazol-3-yl]-5-methyl-6-oxo-6,7-dihydro-5H-pyrrolo[2,3-d]pyrimidin-5-yl}phenyl)-2,2-dimethylpropanoic acid] |
| 63 | 575 | 0.602 | – | CC1(c2nc(-c3cccc(C(=O)O)c3)cs2)C(=O)Nc2nc(-c3nn(CCC(F)(F)C(F)(F)F)c4cc(Cl)ccc34)nc(N)c21 (stereo not shown) [Example 93A, 3-(2-{4-amino-2-[6-chloro-1-(3,3,4,4,4-pentafluorobutyl)-1H-indazol-3-yl]-5-methyl-6-oxo-6,7-dihydro-5H-pyrrolo[2,3-d]pyrimidin-5-yl}-1,3-thiazol-4-yl)benzoic acid] |
| 89 | 568 | 0.064 | – | CC1(c2ccc(CCCC(=O)O)cc2)C(=O)Nc2nc(-c3nn(Cc4ccccc4F)c4ncccc34)nc(N)c21 (stereo not shown) [Example 113B, 4-(4-{4-Amino-2-[1-(2-fluorobenzyl)-1H-pyrazolo[3,4-b]pyridin-3-yl]-5-methyl-6-oxo-6,7-dihydro-5H-pyrrolo[2,3-d]pyrimidin-5-yl}phenyl)butanoic acid] |
| 110 | 478 | 0.158 | – | CC(C)(Cc1csc([C@]2(C)C(=O)Nc3nc(-c4nn(Cc5ccccc5F)c5ccccc45)nc(N)c32)n1)c1nn[nH]n1 (single isomer, unassigned) [Example 236A] |
| – | 444 | 0.187 | 103.8 | CC1(N2CCC(CCC(=O)O)C2)C(=O)Nc2nc(-c3nn(Cc4ccccc4F)c4cc(Cl)ccc34)nc(N)c21 (single isomer, unassigned) [Example 261D, 3-[1-{4-Amino-2-[6-chloro-1-(2-fluorobenzyl)-1H-indazol-3-yl]-5-methyl-6-oxo-6,7-dihydro-5H-pyrrolo[2,3-d]pyrimidin-5-yl}pyrrolidin-3-yl]propanoic acid] |
| 83.3 | 205 | 0.12 | – | Cc1cccc(Cn2nc(-c3nc(N)c4c(n3)NC(=O)C4(C)c3nc(CC(C)(C)C(=O)O)co3)c3ccc(Cl)cc32)c1 (stereo not shown) [Example 186A, 3-(2-{4-amino-2-[6-chloro-1-(3-methylbenzyl)-1H-indazol-3-yl]-5-methyl-6-oxo-6,7-dihydro-5H-pyrrolo[2,3-d]pyrimidin-5-yl}-1,3-oxazol-4-yl)-2,2-dimethyl-propanoic acid] |
